“Also recorded” adds a separate entry of the source.
How the values were obtained:
[1] = system: P. aeruginosa (PAO1 mutant); experiment: Radial diffusion assay; format: cell-based
LDL [2] = experiment: TBARS assay of copper-induced oxidation of LDL; format: biochemical, human; conditions: for I.C.50 (half-maximal point) for inhibition of copper-induced oxidation of LDL / Concentration of complete inhibition of LDL oxidation (to basal levels) / IC50: 10 μM Cu2+, TBARS; for I.C.50 (half-maximal point) for inhibition of copper-induced oxidation of LDL: 4 hours; for IC50: read-out: I.C.50 for inhibition of copper-induced oxidation of LDL; for TBARS LDL Malondialdehyde: mean ± S.E.M., n=3; for Concentration required to provide the same level of antioxidant protection: LDL, level of 500 μg/ml of rat serum
Method: Substrates for lipid oxidation included mixtures of natural and synthetic glycerophospholipids that are found in pulmonary surfactant and human LDL. The surfactant lipid mix, composed of egg phosphatidylcholine, dipalmitoylphosphatidylcholine, cholesterol and 1-oleoyl-2-linoleoyl-sn-glycero-3-phosphocholine (1:1:0.15:0.15, w/w, respectively) (Avanti Polar Lipids) in chloroform, was dried to a film under nitrogen. Following hydration in PBS or 0.15 M NaCl for 30 min, multilamellar vesicles were generated by vigorous vortexing for 5 minutes. LDL were isolated from the plasma of normal blood donors by density gradient ultracentrifugation (density=1.019-1.063 g/ml) as previously described in Qin et al., Am. J. Physiol. 274(5 Pt 2): H1836-1840 (1998), and stored in saline-EDTA. Just prior to use, EDTA was removed by dialysis against PBS, and the concentration of LDL was determined by Lowry assay (in milligrams of LDL-associated protein).
(§1) Stock solutions of 10 mM CuSO4 were freshly prepared daily. Reaction mixtures containing 1 mg/mi surfactant lipids or 150 μg/ml LDL were incubated with 10 μM CuSO4 for 24 hours or 4 hours, respectively, in the presence of putative oxidation inhibitors or controls at 37° C. in a shaking water bath in accordance with the method of Gelvan et al., Biochim. Biophys. Acta 1035(3):353-360 (1990). Control reactions which included LDL only, 10 μM CuSO4 or protein controls of bovine serum albumin (BSA), rat IgG, recombinant MBP, rat serum and human complement C1q were performed concurrently with experimental samples. Thiobarbituric acid-reactive substances (TBARS) were measured using a method adapted from Gelvan et al., Biochim. Biophys. Acta 1035(3):353-360 (1990). Samples and 0-10 μM […] standards were developed by addition of a solution composed of 0.375% thiobarbituric acid, 15% trichloroacetic acid, and 0.25N HCl at a volume ratio of 1:2, sample: developer. Following incubation at 95° C. for 30 minutes and centrifugation at 14,000 rpm for 15 minutes, an aliquot was read at 540 nm in a spectrophotometer. For continuous assessment of lipid oxidation, the accumulation of conjugated dienes during LDL oxidation was monitored spectrophotometrically in accordance with the method of Esterbauer et al., Free Rad. Med. Biol. 13, 341-390 (1992). Mixtures of 150 μg/ml LDL, 10 μM copper, and various amounts of surfactant proteins or control proteins were placed in quartz cuvettes and allowed to oxidize at room temperature over 335 minutes. Conjugated diene formation was assessed by measuring absorbance at 234 nm in a spectrophotometer.
The data are set forth graphically in FIG. 3. Various concentrations of recombinant wild type SP-A (circle), mutant SP-A containing a deletion of the collagen-like domain (square) and mutant SP-A containing only the neck and C-lectin domain (CLD) (triangle) were incubated with LDL in the presence of 10 μM Cu^2+, and lipid peroxidation was quantified by TBARS assay. Data are means, n=3-4.

E. coli = experiment: CFU count over a six hour incubation; format: cell-based; conditions: at 1 and 2 hrs; confounded by bacterial aggregation
surfactant lipids = experiment: TBARS assay of copper-induced oxidation of surfactant lipids; format: biochemical; conditions: for I.C.50 (half maximal concentration) for inhibition of copper-induced oxidation of surfactant lipids / Concentration of complete inhibition / maximal protection of surfactant lipids: 10 μM Cu2+, 24 hr, TBARS; for I.C.50 (half maximal concentration) for inhibition of copper-induced oxidation of surfactant lipids: 37° C.; for Lipid peroxidation (LPO) produced by copper or iron: 24 hr incubation, 10 μM copper or iron; for TBARS Surfactant lipids Malondialdehyde: mean ± S.E.M., n=3; for IC50: assuming rat SP-A M.W.=600,000, rat SP-D M.W.=500,000, read-out: I.C.50 for inhibition of copper-induced oxidation of surfactant lipids
LDL [3] = experiment: Continuous spectrophotometric monitoring of conjugated diene formation during copper-induced LDL oxidation; format: biochemical, human; conditions: for Effect of addition during the propagation phase of oxidation: 10 μg/ml SP-A at 95, 175 or 195 minutes, 1 μg/ml SP-D at 95, 125 or 155 minutes; for Effect on accumulation of conjugated dienes when included at zero time: SP-A 1.0-10 μg/ml, SP-D 0.01-1 μg/ml; for Concentration of complete inhibition of oxidation (conjugated diene formation): added at zero time, 10 μM copper, room temperature, absorbance 234 nm
Method: as §1
The temporal relationship between the addition of SP-A or SP-D and the inhibition of LDL oxidation was determined spectrophotometrically by continuously monitoring conjugated diene accumulation associated with exposure to copper, in accordance with the method of Esterbauer et al., Free Rad. Med. Biol. 13:341-390 (1992). The assay is based on the oxidation dependent rearrangement of 1,4 pentadienyl double bonds of LDL lipids to 1,3-butadienyl double bonds, which absorb in the ultraviolet range. In the presence of 10 μM copper at room temperature, LDL particles resist oxidation for up to 100 minutes as endogenous antioxidants such as atocopherol are consumed. At that point, the rate of oxidation increases in proportion to the concentration of initiating radicals, reaching a plateau when all unsaturated fatty acids are consumed.
According to FIG. 2, conjugated diene formation during copper-induced LDL oxidation was monitored spectrophotometrically by measuring absorbance at 234 nm.

[4] = surfactant lipids, copper-induced

| Molecule | I.C.50 (half-maximal point) for inhibition of copper-induced oxidation of LDL (LDL [2]) [µg/mL] | Concentration of complete inhibition of LDL oxidation (to basal levels) (LDL [2]) [µg/mL] | IC50 (LDL [2]) [nM] | Concentration required to provide the same level of antioxidant protection (LDL [2]) [µg/mL] | I.C.50 (half maximal concentration) for inhibition of copper-induced oxidation of surfactant lipids (surfactant lipids) [µg/mL] | Concentration of complete inhibition / maximal protection of surfactant lipids (surfactant lipids) [µg/mL] | Lipid peroxidation (LPO) produced by copper or iron (surfactant lipids) | IC50 (surfactant lipids) [nM] | Effect of alkylation with iodoacetamide on the antioxidant effects (surfactant lipids; [4]) | Effect of addition during the propagation phase of oxidation (LDL [3]) | Effect on accumulation of conjugated dienes when included at zero time (LDL [3]) | Concentration of complete inhibition of oxidation (conjugated diene formation) (LDL [3]) [µg/mL] | other results |
| --- | --- | --- | --- | --- | --- | --- | --- | --- | --- | --- | --- | --- | --- |
| SP-A: Native surfactant protein A isolated from the alveolar wash of silica-pretreated rats | 4.75 | 10 | 7.9 | 2.5 | 5.07 | 10 | block lipid peroxidation | 8.4 | completely blocked the antioxidant effects | arrested lipid oxidation almost immediately; also recorded: conjugated diene formation was completely arrested at the point of addition | blocked the accumulation of conjugated dienes in a dose-dependent manner | 10 | Growth of P. aeruginosa (PAO1 mutant) [1]: inhibited the growth; TBARS LDL Malondialdehyde (LDL [2]; LDL + Cu2+ + 10 μg/ml protein): 0.0 ± 0.0 µM; Decrease in number of CFUs (E. coli): 90%; TBARS Surfactant lipids Malondialdehyde (surfactant lipids; Lipid + Cu2+ + 10 μg/ml protein): 0.23 ± 0.01 µM; Effect of presaturation with 70 uM copper or addition of 2 mM Ca2+ on antioxidant activity (surfactant lipids; [4]): neither the presaturation of SP-A with 70 uM copper, as indicated in Table 1, below, or the addition of 2 mM Ca^2+ (not shown) had a significant effect on the activity; Concentration required to achieve the same level of inhibition of oxidation (surfactant lipids; surfactant lipids, level reached by 500 μg/ml rat serum): about 5.0 μg/ml |
| SP-D: Native surfactant protein D from rat alveolar wash; mouse SP-D was used interchangeably with rat SP-D (protein) AEMKSLSQRSVPNTCTLVMCSPTENGLPGRDGRDGREGPRGEKGDPGLPGPMGLSGLQGPTGPVGPKGENGSAGEPGPKGERGLSGPPGLPGIPGPAGKEGPSGKQGNIGPQGKPGPKGEAGPKGEVGAPGMQGSTGAKGSTGPKGERGAPGVQGAPGNAGAAGPAGPAGPQGAPGSRGPPGLKGDRGVPGDRGIKGESGLPDSAALRQQMEALKGKLQRLEVAFSHYQKAALFPDGRSVGDKIFRTADSEKPFEDAQEMCKQAGGQLASPRSATENAAIQQLITAHNKAAFLSMTDVGTEGKFTYPTGEPLVYSNWAPGEPNNNGGAENCVEIFTNGQWNDKACGEQRLVICEF | 0.14 | 1 | 0.3 | 0.05 | 0.11 | ≥ 0.5 | block lipid peroxidation | 0.2 | completely blocked the antioxidant effects | arrested lipid oxidation almost immediately; also recorded: conjugated diene formation was completely arrested at the point of addition | blocked the accumulation of conjugated dienes in a dose-dependent manner | 0.5 | TBARS LDL Malondialdehyde (LDL [2]; LDL + Cu2+ + 1 μg/ml protein): 0.0 ± 0.0 µM; TBARS Surfactant lipids Malondialdehyde (surfactant lipids; Lipid + Cu2+ + 1 μg/ml protein): 0.27 ± 0.07 µM; I.C.50 fold lower than ApoAIV (surfactant lipids; surfactant lipids oxidation): ~100 fold; I.C.50 fold lower than SP-A (surfactant lipids; surfactant lipids oxidation): approximately 35 fold |

Source: patent US7273847B2, “Peptides with antioxidant and antimicrobial properties” (priority 2000, dated 2007)
